From US20230310388A1, “Methods and Compositions for Treating Fungal Infections” (Neoculi Pty Ltd, priority 2020, published 2023)
Values after ≈ are worked out from the molar mass of the structure shown. Values joined by “and” are separate entries in the source; they are usually repeats but may differ in a detail not shown here. Identical values can stand only once.

Assays:
[1] = system: Candida albicans; assay: CLSI broth microdilution MIC (Example 4); assay type: cell-based; details: for antifungal activity against the two isolates of Candida albicans: summary in words
Description: (§1) Antifungal minimum inhibitory concentration (MIC) testing was undertaken as recommended by the CLSI. Briefly, antifungal susceptibility tests were performed for amphotericin B, robenidine (NCL812) and robenidine (NCL) analogs (NCL004, NCL020, NCL023, NCL024, NCL062, NCL094, NCL097, NCL110, NCL113, NCL114, NCL115, NCL135, NCL139, NCL180, NCL181, NCL195, NCL219, NCL220, NCL228, NCL247, NCL250, NCL259, NCL260, NCL263, NCL265, NCL269, NCL274) by standard broth microdilution method (CLSI) in RPMI 1640. Various concentrations (ranging from high to low) of the selected compounds were prepared in RPMI 1640 medium by double dilution in 96-well microtitre plates. Each well contained an inoculum of approximately 2×10^3 cells/mL. The wells without addition of drugs served as negative (no inoculum) and positive (inoculum only) growth controls. Microtitre plates were incubated at 35° C. for 24-48 hours. […] Antifungal MICs were determined for each isolate in duplicate; if the values obtained were different, the MIC test was repeated a third time.

[2] = system: Cryptococcus neoformans; assay: CLSI broth microdilution MIC (Example 4); assay type: cell-based
Description: as §1

[3] = system: Candida albicans; assay: CLSI broth microdilution MIC (Example 5); assay type: cell-based; details: for activity against one or more isolates of Cryptococcus neoformans and Candida albicans: summary in words
Description: as §1, with “robenidine” for “robenidine (NCL)”, “(NCL23, NCL24, NCL97,” for “(NCL004, NCL020, NCL023, NCL024, NCL062, NCL094, NCL097, NCL110,”, “NCL113,” for “NCL113, NCL114,”, “NCL115,” for “NCL115, NCL135, NCL139, NCL180, NCL181,”, “NCL220,” for “NCL220, NCL228, NCL247, NCL250,”, “NCL265)” for “NCL260, NCL263, NCL265, NCL269, NCL274)”

[4] = system: Cryptococcus neoformans; assay: CLSI broth microdilution MIC (Example 5); assay type: cell-based
Description: as §1, with “robenidine” for “robenidine (NCL)”, “(NCL23, NCL24, NCL97,” for “(NCL004, NCL020, NCL023, NCL024, NCL062, NCL094, NCL097, NCL110,”, “NCL113,” for “NCL113, NCL114,”, “NCL115,” for “NCL115, NCL135, NCL139, NCL180, NCL181,”, “NCL220,” for “NCL220, NCL228, NCL247, NCL250,”, “NCL265)” for “NCL260, NCL263, NCL265, NCL269, NCL274)”

[5] = system: Candida albicans; assay: CLSI broth microdilution MIC (Example 6); assay type: cell-based
Description: (§2) Antifungal minimum inhibitory concentration (MIC) testing was undertaken as recommended by the CLSI (1). Briefly, antifungal susceptibility tests were performed for amphotericin B, robenidine (NCL812) and 10 robenidine analogs (NCL023, NCL024, NCL097, NCL113, NCL115, NCL195, NCL219, NCL220, NCL259, NCL265) by standard broth microdilution method (CLSI) in RPMI 1640. Various concentrations (ranging from high to low) of the selected compounds were prepared in RPMI 1640 medium by double dilution in 96-well microtitre plates. Each well contained an inoculum of approximately 2×10^3 cells/mL. The wells without addition of drugs served as negative (no inoculum) and positive (inoculum only) growth controls. Microtitre plates were incubated at 35° C. for 24-48 hours. […] Antifungal MICs were determined for each isolate in duplicate; if the values obtained were different, the MIC test was repeated a third time.

[6] = system: Cryptococcus neoformans; assay: CLSI broth microdilution MIC (Example 6); assay type: cell-based
Description: as §2

[7] = system: C. gattii; assay: CLSI broth microdilution MIC (Example 6); assay type: cell-based, Cryptococcus gattii
Description: as §2

[8] = system: Candida albicans ATCC14053; assay: Broth micro-dilution screen at 16 μg/mL and MIC (Example 9); assay type: cell-based; details: for MIC: C. albicans ATCC14053, test range 0.25-64 μg/mL, duplicate; for Screen at 16 μg/mL: single concentration 16 μg/mL, Growth or No growth of C. albicans ATCC14053
Description: The antifungal activity of 201 NCL analogs against Candida albicans ATCC14053 in vitro was investigated. A broth micro-dilution method was used, according to CLSI guidelines as described. NCL analogs were dissolved in DMSO and originally screened at a single concentration of 16 μg/mL.

[9] = clinical isolate C. albicans 12-93301752 Azole Resistant
[10] = clinical isolate C. albicans 14-90045999 Azole Resistant
[11] = clinical isolate C. albicans 15-45171061
[12] = clinical isolate C. albicans 15-91329871
[13] = clinical isolate C. albicans 16-24136919 Azole Resistant
[14] = clinical isolate C. albicans 16-46177400
[15] = clinical isolate C. albicans 16-90050810
[16] = clinical isolate C. albicans 16-90054237
[17] = clinical isolate C. albicans 18-144-00196
[18] = clinical isolate C. albicans 18-148-08188 Azole Resistant
[19] = human clinical isolate C. neoformans serotype A/D hybrid
[20] = human clinical isolate C. neoformans var grubii 16-90050434
[21] = human clinical isolate C. neoformans var grubii 17-90028233
[22] = human clinical isolate C. neoformans var grubii 17-93996464
[23] = human clinical isolate C. neoformans var grubii 17-93996964
[24] = human clinical isolate C. gatti 17-90232099
[25] = human clinical isolate C. gattii 16-90050373
[26] = human clinical isolate C. gattii 17-90028211
[27] = human clinical isolate C. gattii 17-90028217
[28] = human clinical isolate C. gattii 17-90028242

Row | Compound | MIC at 24-48 hours ([1]; Candida albicans ATCC 90028) [µg/mL] | MIC at 24-48 hours ([1]; Candida albicans SA3) [µg/mL] | MIC at 24-48 hours ([2]; Cryptococcus neoformans SA1) [µg/mL] | MIC at 24-48 hours ([2]; Cryptococcus neoformans SA2) [µg/mL] | MIC ([3]; C. albicans SA3) [µg/mL] | MIC ([3]; Candida albicans ATCC 90028) [µg/mL] | MIC [3, 9] [µg/mL] | MIC [3, 10] [µg/mL] | MIC [3, 11] [µg/mL] | MIC [3, 12] [µg/mL] | MIC [3, 13] [µg/mL] | MIC [3, 14] [µg/mL] | MIC [3, 15] [µg/mL] | MIC [3, 16] [µg/mL] | MIC [3, 17] [µg/mL] | MIC [3, 18] [µg/mL] | activity against one or more isolates of Cryptococcus neoformans and Candida albicans [3] | MIC ([4]; Cryptococcus neoformans SA1) [µg/mL] | MIC ([4]; Cryptococcus neoformans SA2) [µg/mL] | MIC ([5]; C. albicans SA3) [µg/mL] | also measured
1 | Cl.N=C(NN=Cc1cccc(F)c1)NN=Cc1cccc(F)c1 [NCL023] | 32 | 32 | 16 | 16 | 32 | 32 | 16 | >16 | 16 | 16 | 8 | >16 | >16 | 16 | 16 | 16 | highly active | 16 | 16 | 32 | antifungal activity against the two isolates of Candida albicans [1]: high antifungal activity; MIC ([5]; Candida albicans ATCC 90028): 32 µg/mL; MIC ([6]; Cryptococcus neoformans SA1): 16 µg/mL; MIC ([6]; Cryptococcus neoformans SA2): 16 µg/mL; MIC [6, 19]: 8 µg/mL; MIC [6, 20]: 8 µg/mL; MIC [6, 21]: 8 µg/mL; MIC [6, 22]: 8 µg/mL; MIC [6, 23]: 8 µg/mL; MIC [7, 24]: 8 µg/mL; MIC [7, 25]: 8 µg/mL; MIC [7, 26]: 16 µg/mL; MIC [7, 27]: 16 µg/mL; MIC [7, 28]: 8 µg/mL; MIC [8]: 8 µg/mL and 16 µg/mL; Screen at 16 μg/mL [8]: No growth
2 | Cl.N#Cc1ccc(C=NNC(=N)NN=Cc2ccc(C#N)cc2)cc1 [NCL024] | >32 | >32 | >32 | 32 | >32 | >32 | 8 | 4 | 16 | >16 | 8 | >16 | >16 | 4 | 16 | >16 | highly active | >32 | 32 | >32 | MIC ([5]; Candida albicans ATCC 90028): >32 µg/mL; MIC ([6]; Cryptococcus neoformans SA1): >32 µg/mL; MIC ([6]; Cryptococcus neoformans SA2): 32 µg/mL; MIC [6, 19]: 32 µg/mL; MIC [6, 20]: 32 µg/mL; MIC [6, 21]: 16 µg/mL; MIC [6, 22]: 32 µg/mL; MIC [6, 23]: 32 µg/mL; MIC [7, 24]: 32 µg/mL; MIC [7, 25]: 16 µg/mL; MIC [7, 26]: 8 µg/mL; MIC [7, 27]: 32 µg/mL; MIC [7, 28]: 32 µg/mL; Screen at 16 μg/mL [8]: Growth
3 | Nc1nc(NN=Cc2ccc(F)cc2)cc(NN=Cc2ccc(F)cc2)n1 [NCL220] | 32 (≈ 87.1 µM) | 32 (≈ 87.1 µM) | 2 (≈ 5.44 µM) | 4 (≈ 10.9 µM) | 32 (≈ 87.1 µM) | 32 (≈ 87.1 µM) | 4 (≈ 10.9 µM) | >16 | >16 | 8 (≈ 21.8 µM) | 4 (≈ 10.9 µM) | >16 | >16 | 8 (≈ 21.8 µM) | 8 (≈ 21.8 µM) | 4 (≈ 10.9 µM) | highly active | 2 (≈ 5.44 µM) | 4 (≈ 10.9 µM) | 32 (≈ 87.1 µM) | antifungal activity against the two isolates of Candida albicans [1]: high antifungal activity; MIC ([5]; Candida albicans ATCC 90028): 32 µg/mL (≈ 87.1 µM); MIC ([6]; Cryptococcus neoformans SA1): 2 µg/mL (≈ 5.44 µM); MIC ([6]; Cryptococcus neoformans SA2): 4 µg/mL (≈ 10.9 µM); MIC [6, 19]: 32 µg/mL (≈ 87.1 µM); MIC [6, 20]: 32 µg/mL (≈ 87.1 µM); MIC [6, 21]: >32 µg/mL; MIC [6, 22]: 32 µg/mL (≈ 87.1 µM); MIC [6, 23]: 32 µg/mL (≈ 87.1 µM); MIC [7, 24]: 4 µg/mL (≈ 10.9 µM); MIC [7, 25]: >32 µg/mL; MIC [7, 26]: 32 µg/mL (≈ 87.1 µM); MIC [7, 27]: 4 µg/mL (≈ 10.9 µM); MIC [7, 28]: 32 µg/mL (≈ 87.1 µM); MIC [8]: >64 µg/mL; Screen at 16 μg/mL [8]: Growth
